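Cells were grown in 96-well plates and exposed to each compound for 48 hours at five concentrations; endpoints were interpolated linearly between bracketing concentrations, or set to the highest concentration if not reached. GI50 = concentration required for 50% inhibition of growth.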 Active and inactive are the calls of the source. Cut-off read from the data, not from the text of the source: active = GI50 up to about 1.1 µM and inactive = higher.
Key:
Experiment in all cases: NCI tumour cell line growth inhibition, 48 h
DU-145 = tested on: DU-145
HCT-116 = tested on: HCT-116
HL-60 = tested on: HL-60
HOP-92 = tested on: HOP-92
Hs-578T = tested on: Hs-578T
IGROV-1 = tested on: IGROV-1
MDA-MB-435 = tested on: MDA-MB-435
MOLT-4 = tested on: MOLT-4
Malme-3M = tested on: Malme-3M
NCI-H226 = tested on: NCI-H226
NCI-H23 = tested on: NCI-H23
OVCAR-4 = tested on: OVCAR-4
SF-268 = tested on: SF-268
SF-539 = tested on: SF-539
SK-OV-3 = tested on: SK-OV-3
TK-10 = tested on: TK-10
UACC-62 = tested on: UACC-62
UO-31 = tested on: UO-31
SK-MEL-28 = tested on: SK-MEL-28

| Compound | GI50 (DU-145) | GI50 (HCT-116) | GI50 (HL-60) | GI50 (HOP-92) | GI50 (Hs-578T) | GI50 (IGROV-1) | GI50 (MDA-MB-435) | GI50 (MOLT-4) | GI50 (Malme-3M) | GI50 (NCI-H226) | GI50 (NCI-H23) | GI50 (OVCAR-4) | GI50 (SF-268) | GI50 (SF-539) | GI50 (SK-OV-3) | GI50 (TK-10) | GI50 (UACC-62) | GI50 (UO-31) | GI50 (SK-MEL-28) |
| --- | --- | --- | --- | --- | --- | --- | --- | --- | --- | --- | --- | --- | --- | --- | --- | --- | --- | --- | --- |
| C=C(C)[C@H]1C2=CC(C(=O)OC)=C(C[C@H](C(=C)C)[C@@H](O)[C@@H](O)C3=C[C@H]1OC3=O)O2 | > 100 µM (inactive) | > 100 µM (inactive) | 61 µM (inactive) | 65.5 µM (inactive) | > 100 µM (inactive) | 80.2 µM (inactive) | > 100 µM (inactive) | 97.5 µM (inactive) | > 100 µM (inactive) | > 100 µM (inactive) | > 100 µM (inactive) | > 100 µM (inactive) | > 100 µM (inactive) | > 100 µM (inactive) | > 100 µM (inactive) | > 100 µM (inactive) | > 100 µM (inactive) | 18 µM (inactive) | – |
| c1ccc2c(c1)Nc1ccccc1[P+]21c2ccccc2Nc2ccccc21 | 0.318 µM (active) | 0.151 µM (active) | 0.251 µM (active) | 0.123 µM (active) | 0.0723 µM (active) | 0.27 µM (active) | 0.284 µM (active) | 0.0525 µM (active) | 0.207 µM (active) | 0.0964 µM (active) | 0.175 µM (active) | 0.447 µM (active) | 0.383 µM (active) | 0.156 µM (active) | 0.267 µM (active) | 0.581 µM (active) | 0.143 µM (active) | 5.46 µM (inactive) | 0.244 µM (active) |
| COc1ccc(C2CC(c3c(C)nn(-c4ccccc4)c3-c3ccc(C)cc3O)=NN2c2ccccc2)cc1 (configuration not stated) | > 79.3 µM (inactive) | 12.7 µM (inactive) | 9.27 µM (inactive) | > 100 µM (inactive) | 10.4 µM (inactive) | 49.3 µM (inactive) | 15 µM (inactive) | 4.65 µM (inactive) | 19.9 µM (inactive) | > 24 µM (inactive) | 3.79 µM (inactive) | > 45.7 µM (inactive) | > 73.6 µM (inactive) | > 78.5 µM (inactive) | > 100 µM (inactive) | > 100 µM (inactive) | 23 µM (inactive) | 24.7 µM (inactive) | > 89.3 µM (inactive) |
| CCOC(=O)c1cc2c(C(=O)c3ccc([N+](=O)[O-])cc3)c(C(C)=O)ccc2[nH]1 | 32.7 µM (inactive) | 45.6 µM (inactive) | > 100 µM (inactive) | 13.2 µM (inactive) | 9.84 µM (inactive) | 26.9 µM (inactive) | 7.66 µM (inactive) | > 100 µM (inactive) | – | 51.4 µM (inactive) | 50.2 µM (inactive) | 5.52 µM (inactive) | 8.3 µM (inactive) | 17.8 µM (inactive) | 9.06 µM (inactive) | 22.2 µM (inactive) | > 100 µM (inactive) | > 100 µM (inactive) | > 100 µM (inactive) |
| OC1c2ccccc2CCC1C(O)(C(F)(F)F)C(F)(F)F (configuration not stated) | > 100 µM (inactive) | > 100 µM (inactive) | > 100 µM (inactive) | 35.1 µM (inactive) | > 100 µM (inactive) | > 100 µM (inactive) | > 100 µM (inactive) | > 100 µM (inactive) | > 100 µM (inactive) | 38.4 µM (inactive) | 85.1 µM (inactive) | > 100 µM (inactive) | > 100 µM (inactive) | > 100 µM (inactive) | > 100 µM (inactive) | > 100 µM (inactive) | > 100 µM (inactive) | > 100 µM (inactive) | > 100 µM (inactive) |
| Nc1ccc(Oc2ccc(C34CC5CC6C3CC3CC4C(C5)C6(c4ccc(Oc5ccc(N)c(O)c5)cc4)C3)cc2)cc1O | 4.73 µM (inactive) | 1.31 µM (inactive) | 0.542 µM (active) | 1.35 µM (inactive) | 17.2 µM (inactive) | 5.14 µM (inactive) | 3.83 µM (inactive) | 2.29 µM (inactive) | 13.8 µM (inactive) | 3.52 µM (inactive) | 3.55 µM (inactive) | 4.27 µM (inactive) | 3.33 µM (inactive) | 0.0255 µM (active) | 10.1 µM (inactive) | 4.92 µM (inactive) | 10.1 µM (inactive) | 2.42 µM (inactive) | 7.06 µM (inactive) |
| COc1ccc(/C=C2\N=C(N3CCOCC3)NC2=O)cc1 | > 100 µM (inactive) | > 100 µM (inactive) | > 100 µM (inactive) | > 100 µM (inactive) | > 100 µM (inactive) | > 100 µM (inactive) | > 100 µM (inactive) | > 100 µM (inactive) | > 100 µM (inactive) | > 100 µM (inactive) | > 100 µM (inactive) | > 100 µM (inactive) | > 100 µM (inactive) | > 100 µM (inactive) | > 100 µM (inactive) | > 100 µM (inactive) | > 100 µM (inactive) | > 100 µM (inactive) | > 100 µM (inactive) |
| CCn1c(-c2ccc(OC(C)=O)cc2)c(C)c2cc(OC(C)=O)ccc21 [ZINDOXIFENE] | 18.5 µM (inactive) | 6.84 µM (inactive) | 11 µM (inactive) | 30.1 µM (inactive) | 13.9 µM (inactive) | 24 µM (inactive) | 12.5 µM (inactive) | 8.49 µM (inactive) | 21.7 µM (inactive) | 30.1 µM (inactive) | 24.1 µM (inactive) | 18.1 µM (inactive) | 16.6 µM (inactive) | 15.8 µM (inactive) | 23.1 µM (inactive) | 20 µM (inactive) | 13.2 µM (inactive) | 20.7 µM (inactive) | 16.5 µM (inactive) |
| CCOP(=O)(OCC)C(C)(C)OC(=O)NC#N | > 100 µM (inactive) | > 100 µM (inactive) | > 100 µM (inactive) | > 100 µM (inactive) | > 100 µM (inactive) | > 100 µM (inactive) | > 100 µM (inactive) | > 100 µM (inactive) | > 100 µM (inactive) | > 100 µM (inactive) | > 100 µM (inactive) | > 100 µM (inactive) | > 100 µM (inactive) | > 100 µM (inactive) | > 100 µM (inactive) | > 100 µM (inactive) | > 100 µM (inactive) | > 100 µM (inactive) | > 100 µM (inactive) |
| CC(C)=C[C@H]1C[C@H](C)[C@H]2CC[C@H](C)c3c2c1c(C)c1ncoc31 | 18 µM (inactive) | 18.6 µM (inactive) | 11.5 µM (inactive) | 16.6 µM (inactive) | 17.6 µM (inactive) | 13.9 µM (inactive) | 17.8 µM (inactive) | 14.1 µM (inactive) | 13.5 µM (inactive) | 16.8 µM (inactive) | – | 19.2 µM (inactive) | 19.5 µM (inactive) | 16.4 µM (inactive) | – | 17.4 µM (inactive) | 18.3 µM (inactive) | 17.6 µM (inactive) | 18.7 µM (inactive) |
| C1CCN(CCC2CCCCN2)CC1 (configuration not stated) | > 100 µM (inactive) | > 100 µM (inactive) | > 100 µM (inactive) | > 100 µM (inactive) | > 100 µM (inactive) | > 100 µM (inactive) | > 100 µM (inactive) | > 100 µM (inactive) | > 100 µM (inactive) | > 100 µM (inactive) | > 100 µM (inactive) | > 100 µM (inactive) | > 100 µM (inactive) | > 100 µM (inactive) | > 100 µM (inactive) | > 100 µM (inactive) | > 100 µM (inactive) | – | > 100 µM (inactive) |
| Cc1c(C#N)c2ccccc2c2nc3ccccc3n12 | 43.2 µM (inactive) | 24.9 µM (inactive) | > 100 µM (inactive) | > 100 µM (inactive) | 63 µM (inactive) | 31.9 µM (inactive) | > 100 µM (inactive) | 47.5 µM (inactive) | – | > 100 µM (inactive) | – | 38.4 µM (inactive) | – | 39 µM (inactive) | 98.9 µM (inactive) | > 100 µM (inactive) | > 100 µM (inactive) | 11.7 µM (inactive) | > 100 µM (inactive) |
| CC(=O)c1c2n(n(-c3ccccc3)c1=O)C(=O)c1nccnc1-2 | > 100 µM (inactive) | > 100 µM (inactive) | > 100 µM (inactive) | > 100 µM (inactive) | > 100 µM (inactive) | > 100 µM (inactive) | > 100 µM (inactive) | > 100 µM (inactive) | > 100 µM (inactive) | > 100 µM (inactive) | > 100 µM (inactive) | > 100 µM (inactive) | > 100 µM (inactive) | > 100 µM (inactive) | > 100 µM (inactive) | – | > 100 µM (inactive) | > 100 µM (inactive) | > 100 µM (inactive) |
| CC1(C)CC23CC(C)(C)c4cccc(c42)OCc2ccc4ccc5ccc(nc5c4n2)COc2cccc1c23 | > 50 µM (inactive) | > 50 µM (inactive) | > 50 µM (inactive) | > 50 µM (inactive) | > 50 µM (inactive) | > 50 µM (inactive) | > 50 µM (inactive) | > 50 µM (inactive) | – | > 50 µM (inactive) | – | > 50 µM (inactive) | > 50 µM (inactive) | > 50 µM (inactive) | > 50 µM (inactive) | > 50 µM (inactive) | > 50 µM (inactive) | > 50 µM (inactive) | > 50 µM (inactive) |
| C#CCOC(=O)c1ccccc1O | > 100 µM (inactive) | > 100 µM (inactive) | > 100 µM (inactive) | > 100 µM (inactive) | > 100 µM (inactive) | > 100 µM (inactive) | > 100 µM (inactive) | > 100 µM (inactive) | – | > 100 µM (inactive) | > 100 µM (inactive) | > 100 µM (inactive) | > 100 µM (inactive) | > 100 µM (inactive) | > 100 µM (inactive) | > 100 µM (inactive) | > 100 µM (inactive) | > 100 µM (inactive) | – |

— ChEMBL document CHEMBL1201862, “PubChem BioAssay data set” (2004)
